In paper PMC6130310 (Frontiers in Molecular Neuroscience, 2018):
Blank lines part the entries; values can stand above or below the molecule they belong to.

Experiments:
Assay in all cases: two-electrode voltage clamp, Xenopus oocytes
zGlyRα3/ßb = biological target: T1, zGlyRα3/ßb (Danio rerio, UniProt A0A8M1PA31+Q6DC22); format: cell-based
T1 construct: gene glra3; full-length cDNAs in pCS2+, cRNAs co-injected 1:1 in Xenopus laevis oocytes; heteropentamer
T1 sequence (A0A8M1PA31 28-450): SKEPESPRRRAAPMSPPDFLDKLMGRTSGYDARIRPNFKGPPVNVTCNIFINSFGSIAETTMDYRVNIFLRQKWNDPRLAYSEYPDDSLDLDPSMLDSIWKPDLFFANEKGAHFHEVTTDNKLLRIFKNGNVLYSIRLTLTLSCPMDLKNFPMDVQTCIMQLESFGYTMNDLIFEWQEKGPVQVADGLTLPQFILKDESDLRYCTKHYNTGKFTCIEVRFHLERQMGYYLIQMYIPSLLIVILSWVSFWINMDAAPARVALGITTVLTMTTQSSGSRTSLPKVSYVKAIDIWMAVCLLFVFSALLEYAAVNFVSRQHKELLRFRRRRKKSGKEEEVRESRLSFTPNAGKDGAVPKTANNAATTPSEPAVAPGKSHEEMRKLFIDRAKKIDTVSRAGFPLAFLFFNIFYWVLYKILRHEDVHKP
T1 sequence (Q6DC22 23-494): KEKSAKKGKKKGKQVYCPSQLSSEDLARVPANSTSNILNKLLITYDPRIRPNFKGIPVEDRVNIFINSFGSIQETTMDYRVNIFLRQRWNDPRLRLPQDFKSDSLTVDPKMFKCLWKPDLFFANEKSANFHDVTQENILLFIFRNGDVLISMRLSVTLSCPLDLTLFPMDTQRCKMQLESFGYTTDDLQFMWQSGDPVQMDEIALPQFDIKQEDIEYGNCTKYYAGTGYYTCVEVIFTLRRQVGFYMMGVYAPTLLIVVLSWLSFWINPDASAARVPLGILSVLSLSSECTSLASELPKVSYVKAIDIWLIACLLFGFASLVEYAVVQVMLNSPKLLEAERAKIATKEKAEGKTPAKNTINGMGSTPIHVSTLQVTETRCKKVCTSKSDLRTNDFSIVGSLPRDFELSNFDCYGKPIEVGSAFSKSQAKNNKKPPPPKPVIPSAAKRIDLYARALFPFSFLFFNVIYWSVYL
Description: two-electrode voltage clamp, Xenopus oocytes on zGlyRα3/ßb

zGlyRα1/ßa = system: T2, zGlyRα1/ßa; format: cell-based, Danio rerio; details: -50 mV, pH 7.5, heteromers alpha:beta cRNA 1:1
T2 construct: gene glra1; full-length cDNAs in pCS2+, cRNAs co-injected 1:1 in Xenopus laevis oocytes; heteropentamer
Description: two-electrode voltage clamp, Xenopus oocytes on zGlyRα1/ßa

zGlyRα2 homomer = biological target: T3, zGlyRα2 homomer (Danio rerio, UniProt F1R8P4); format: cell-based
T3 construct: gene glra2; full-length cDNA in pCS2+, Kozak added; cRNA in Xenopus laevis oocytes; homopentamer; not the earlier 'zGlyRα2' (now α4a)
T3 sequence (F1R8P4 28-449): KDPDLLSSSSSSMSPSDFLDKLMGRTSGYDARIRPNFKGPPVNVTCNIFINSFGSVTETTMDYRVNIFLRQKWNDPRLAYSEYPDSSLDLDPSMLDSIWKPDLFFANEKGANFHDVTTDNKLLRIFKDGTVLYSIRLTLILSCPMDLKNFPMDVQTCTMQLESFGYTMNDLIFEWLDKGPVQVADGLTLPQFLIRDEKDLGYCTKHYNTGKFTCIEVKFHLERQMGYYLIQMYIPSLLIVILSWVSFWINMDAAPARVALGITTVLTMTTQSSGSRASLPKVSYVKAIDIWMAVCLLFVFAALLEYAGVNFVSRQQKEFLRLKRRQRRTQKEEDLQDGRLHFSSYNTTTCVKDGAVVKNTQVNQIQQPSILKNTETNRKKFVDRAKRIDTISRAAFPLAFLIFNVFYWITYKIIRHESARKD
Description: two-electrode voltage clamp, Xenopus oocytes on zGlyRα2 homomer

zGlyRα4b homomer = biological target: T4, zGlyRα4b homomer (Danio rerio, UniProt A0A8M1P2L1); format: cell-based
T4 construct: gene glra4b; full-length cDNA in pCS2+, Kozak added; cRNA in Xenopus laevis oocytes; homopentamer
T4 sequence (A0A8M1P2L1 25-492): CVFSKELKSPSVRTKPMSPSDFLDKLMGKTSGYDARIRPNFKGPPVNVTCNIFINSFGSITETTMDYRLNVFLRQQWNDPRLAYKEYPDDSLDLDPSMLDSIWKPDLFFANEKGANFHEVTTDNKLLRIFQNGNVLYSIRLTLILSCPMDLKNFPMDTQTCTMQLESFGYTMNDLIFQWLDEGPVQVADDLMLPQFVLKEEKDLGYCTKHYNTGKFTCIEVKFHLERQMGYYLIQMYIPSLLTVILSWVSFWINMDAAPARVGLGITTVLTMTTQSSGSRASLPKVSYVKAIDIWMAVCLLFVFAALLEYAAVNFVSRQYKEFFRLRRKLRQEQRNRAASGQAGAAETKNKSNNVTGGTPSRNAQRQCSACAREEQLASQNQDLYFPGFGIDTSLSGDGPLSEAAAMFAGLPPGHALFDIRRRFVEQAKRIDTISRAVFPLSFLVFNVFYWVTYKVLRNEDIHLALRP
Description: two-electrode voltage clamp, Xenopus oocytes on zGlyRα4b homomer

zGlyRα4a homomer = biological target: T5, zGlyRα4a homomer (Danio rerio, UniProt F1RDZ6); format: cell-based
T5 construct: gene glra4a; full-length cDNA in pCS2+, Kozak added; cRNA in Xenopus laevis oocytes; homopentamer
T5 sequence (F1RDZ6 28-457): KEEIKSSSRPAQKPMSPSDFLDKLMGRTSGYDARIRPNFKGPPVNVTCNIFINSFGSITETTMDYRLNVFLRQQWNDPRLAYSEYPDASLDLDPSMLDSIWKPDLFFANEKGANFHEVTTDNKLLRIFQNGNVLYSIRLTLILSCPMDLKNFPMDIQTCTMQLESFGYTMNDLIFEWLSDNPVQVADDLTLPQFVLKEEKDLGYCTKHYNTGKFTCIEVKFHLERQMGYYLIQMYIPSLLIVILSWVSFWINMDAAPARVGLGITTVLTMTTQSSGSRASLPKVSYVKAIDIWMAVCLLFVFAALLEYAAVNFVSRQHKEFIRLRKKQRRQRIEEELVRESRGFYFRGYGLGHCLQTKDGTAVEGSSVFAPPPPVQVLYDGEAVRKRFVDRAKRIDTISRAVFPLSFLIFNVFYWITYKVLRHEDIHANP
Description: two-electrode voltage clamp, Xenopus oocytes on zGlyRα4a homomer

zGlyRα4a/ßb = biological target: T6, zGlyRα4a/ßb (Danio rerio, UniProt F1RDZ6+Q6DC22); format: cell-based
T6 construct: gene glra4a; full-length cDNAs in pCS2+, cRNAs co-injected 1:1 in Xenopus laevis oocytes; heteropentamer
T6 sequence (F1RDZ6 28-457): T5 sequence (F1RDZ6 28-457)
T6 sequence (Q6DC22 23-494): T1 sequence (Q6DC22 23-494)
Description: two-electrode voltage clamp, Xenopus oocytes on zGlyRα4a/ßb

zGlyRα1 homomer = biological target: T7, zGlyRα1 homomer (Danio rerio, UniProt O93430); format: cell-based
T7 construct: gene glra1; full-length cDNA in pCS2+, Kozak added; cRNA in Xenopus laevis oocytes; homopentamer
T7 sequence (O93430 25-444): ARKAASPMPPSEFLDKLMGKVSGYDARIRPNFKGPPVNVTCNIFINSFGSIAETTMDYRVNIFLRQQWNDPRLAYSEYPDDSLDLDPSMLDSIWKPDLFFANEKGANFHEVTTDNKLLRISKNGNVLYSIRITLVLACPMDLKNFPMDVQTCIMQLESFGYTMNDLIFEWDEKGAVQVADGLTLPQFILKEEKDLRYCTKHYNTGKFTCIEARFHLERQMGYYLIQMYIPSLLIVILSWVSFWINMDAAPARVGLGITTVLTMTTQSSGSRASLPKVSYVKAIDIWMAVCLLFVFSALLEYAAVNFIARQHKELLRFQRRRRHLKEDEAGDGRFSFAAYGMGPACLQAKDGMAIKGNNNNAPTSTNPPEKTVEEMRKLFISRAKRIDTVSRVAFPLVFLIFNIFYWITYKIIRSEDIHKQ
Description: two-electrode voltage clamp, Xenopus oocytes on zGlyRα1 homomer

zGlyRα4b/ßa = biological target: T8, zGlyRα4b/ßa (Danio rerio, UniProt A0A8M1P2L1+A0ACM8PZL4); format: cell-based
T8 construct: gene glra4b; full-length cDNAs in pCS2+, cRNAs co-injected 1:1 in Xenopus laevis oocytes; heteropentamer
T8 sequence (A0ACM8PZL4 23-498, one chain of several): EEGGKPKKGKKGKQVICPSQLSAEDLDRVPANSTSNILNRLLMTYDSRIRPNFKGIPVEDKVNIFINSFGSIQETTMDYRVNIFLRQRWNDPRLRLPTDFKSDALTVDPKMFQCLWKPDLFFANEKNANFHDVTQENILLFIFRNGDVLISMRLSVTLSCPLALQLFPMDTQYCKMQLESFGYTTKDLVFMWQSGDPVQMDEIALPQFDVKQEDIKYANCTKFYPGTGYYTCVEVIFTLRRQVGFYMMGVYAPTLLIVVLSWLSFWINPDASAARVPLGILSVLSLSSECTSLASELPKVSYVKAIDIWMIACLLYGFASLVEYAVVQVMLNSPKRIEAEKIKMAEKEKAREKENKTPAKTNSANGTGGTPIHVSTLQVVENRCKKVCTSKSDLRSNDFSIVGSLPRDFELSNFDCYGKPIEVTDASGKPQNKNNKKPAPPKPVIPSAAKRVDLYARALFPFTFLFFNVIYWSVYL
Description: two-electrode voltage clamp, Xenopus oocytes on zGlyRα4b/ßa

zGlyRα1/ßb = system: T9, zGlyRα1/ßb; format: cell-based, Danio rerio; details: -50 mV, pH 7.5, heteromers alpha:beta cRNA 1:1
T9 construct: gene glra1; full-length cDNAs in pCS2+, cRNAs co-injected 1:1 in Xenopus laevis oocytes; heteropentamer
Description: two-electrode voltage clamp, Xenopus oocytes on zGlyRα1/ßb

zGlyRα4b/ßb = biological target: T10, zGlyRα4b/ßb (Danio rerio, UniProt A0A8M1P2L1+Q6DC22); format: cell-based
T10 construct: gene glra4b; full-length cDNAs in pCS2+, cRNAs co-injected 1:1 in Xenopus laevis oocytes; heteropentamer
T10 sequence (A0A8M1P2L1 25-492): T4 sequence (A0A8M1P2L1 25-492)
T10 sequence (Q6DC22 23-494): T1 sequence (Q6DC22 23-494)
Description: two-electrode voltage clamp, Xenopus oocytes on zGlyRα4b/ßb

zGlyRα3 homomer = biological target: T11, zGlyRα3 homomer (Danio rerio, UniProt A0A8M1PA31); format: cell-based
T11 construct: gene glra3; full-length cDNA in pCS2+, Kozak added; cRNA in Xenopus laevis oocytes; homopentamer
T11 sequence (A0A8M1PA31 28-450): T1 sequence (A0A8M1PA31 28-450)
Description: two-electrode voltage clamp, Xenopus oocytes on zGlyRα3 homomer

zGlyRα2/ßa = biological target: T12, zGlyRα2/ßa (Danio rerio, UniProt A0ACM8PZL4+F1R8P4); format: cell-based
T12 construct: gene glra2; full-length cDNAs in pCS2+, cRNAs co-injected 1:1 in Xenopus laevis oocytes; heteropentamer
T12 sequence (A0ACM8PZL4 23-498, one chain of several): as above
Description: two-electrode voltage clamp, Xenopus oocytes on zGlyRα2/ßa

zGlyRα3/ßa = biological target: T13, zGlyRα3/ßa (Danio rerio, UniProt A0A8M1PA31+A0ACM8PZL4); format: cell-based
T13 construct: gene glra3; full-length cDNAs in pCS2+, cRNAs co-injected 1:1 in Xenopus laevis oocytes; heteropentamer
T13 sequence (A0ACM8PZL4 23-498, one chain of several): as above
Description: two-electrode voltage clamp, Xenopus oocytes on zGlyRα3/ßa

zGlyRα4a/ßa = biological target: T14, zGlyRα4a/ßa (Danio rerio, UniProt A0ACM8PZL4+F1RDZ6); format: cell-based
T14 construct: gene glra4a; full-length cDNAs in pCS2+, cRNAs co-injected 1:1 in Xenopus laevis oocytes; heteropentamer
T14 sequence (A0ACM8PZL4 23-498, one chain of several): as above
Description: two-electrode voltage clamp, Xenopus oocytes on zGlyRα4a/ßa

zGlyRα2/ßb = biological target: T15, zGlyRα2/ßb (Danio rerio, UniProt F1R8P4+Q6DC22); format: cell-based
T15 construct: gene glra2; full-length cDNAs in pCS2+, cRNAs co-injected 1:1 in Xenopus laevis oocytes; heteropentamer
T15 sequence (F1R8P4 28-449): T3 sequence (F1R8P4 28-449)
T15 sequence (Q6DC22 23-494): T1 sequence (Q6DC22 23-494)
Description: two-electrode voltage clamp, Xenopus oocytes on zGlyRα2/ßb

[1] = read-out: Glycine / EC50, agonist
[2] = read-out: Strychnine / IC50, competitive antagonist, block of current evoked by 200 μM glycine

EC50 (zGlyRα3/ßb): 260 ± 20 µM
EC50 (zGlyRα1/ßa; [1]): 186 ± 10 µM
EC50 (zGlyRα2 homomer): 138 ± 10 µM
EC50 (zGlyRα4b homomer): 134 ± 15 µM
EC50 (zGlyRα4a homomer): 200 ± 16 µM
EC50 (zGlyRα4a/ßb): 404 ± 24 µM
EC50 (zGlyRα1 homomer): 102 ± 5.8 µM
EC50 (zGlyRα4b/ßa): 236 ± 17 µM
EC50 (zGlyRα1/ßb; [1]): 194 ± 18 µM
EC50 (zGlyRα4b/ßb): 221 ± 15 µM
EC50 (zGlyRα3 homomer): 125 ± 7.9 µM
EC50 (zGlyRα2/ßa): 307 ± 30 µM
EC50 (zGlyRα3/ßa): 521 ± 52 µM
EC50 (zGlyRα4a/ßa): 458 ± 82 µM
EC50 (zGlyRα2/ßb): 343 ± 64 µM
Structure (SMILES): NCC(=O)O [glycine]

Structure (SMILES): O=C1C[C@@H]2OCC=C3CN4CC[C@]56c7ccccc7N1[C@H]5[C@H]2[C@H]3C[C@H]46 [strychnine]
IC50 (zGlyRα3/ßb): 0.041 ± 0.0081 µM
IC50 (zGlyRα1/ßa; [2]): 0.012 ± 0.004 µM
IC50 (zGlyRα2 homomer): 0.212 ± 0.037 µM
IC50 (zGlyRα4b homomer): 0.052 ± 0.011 µM
IC50 (zGlyRα4a homomer): 0.055 ± 0.012 µM
IC50 (zGlyRα4a/ßb): 0.018 ± 0.0026 µM
IC50 (zGlyRα4b/ßa): 0.081 ± 0.016 µM
IC50 (zGlyRα1/ßb; [2]): 0.074 ± 0.017 µM
IC50 (zGlyRα4b/ßb): 0.021 ± 0.0031 µM
IC50 (zGlyRα3 homomer): 0.021 ± 0.008 µM
IC50 (zGlyRα2/ßa): 0.292 ± 0.043 µM
IC50 (zGlyRα3/ßa): 0.083 ± 0.016 µM
IC50 (zGlyRα4a/ßa): 0.043 ± 0.022 µM
IC50 (zGlyRα2/ßb): 0.121 ± 0.016 µM
